This is an account of results in patent US6455577B2, “Flavanone derivatives and composition for preventing or treating blood lipid level-related diseases comprising same” (Korea Research Institute of Bioscience and Biotechnology, priority 2000, dated 2002).

The structures appear in SMILES notation.

The subject of one test is Sprague-Dawley rats. Nature of the test: Plasma total cholesterol, HDL-cholesterol and triglyceride levels in rats fed high-cholesterol diet. It is filed as in vivo, rat. The text has this:
(Step 1) Administration of NG5006 to rats
30 four-week-old white Sprague-Dawley rats (Korea Institute of Science and Technology, Korea), each weighing about 90 to 120 g, were evenly divided into three dietary groups by a randomized block design. The rats of the three groups were fed with three different high-cholesterol diets, i.e., AIN-76 laboratory animal diet(ICN Biochemicals, Cleveland, Ohio, U.S.A.) containing 1% cholesterol(Control group), 1% cholesterol plus 0.02% naringenin and 1% cholesterol plus 0.036% NG5006, respectively.
The rats were allowed to feed freely on the specified diet together with water for six weeks, the ingestion amount was recorded daily and the rats were weighed every 7 days, and then the record was analyzed. […] (Step 2) Determination of total cholesterol, HDL-cholesterol and triglyceride contents in blood
The effects of administering naringenin or NG5006 to rats on the plasma cholesterol and triglyceride contents were determined as follows.
Blood samples were taken from the rats of the three dietary groups and total cholesterol level was determined by using Sigma Diagnostic Kit Cat. No. C0534(Sigma Chemical Co., U.S.A.). HDL fractions were separated therefrom by using HDL-cholesterol reagent(Sigma Chemical Co., Cat. No. 352-1) and HDL-cholesterol level was determined by using Sigma Diagnostic Kit Cat. No. C9908(Sigma Chemical Co., U.S.A.). Triglyceride level was determined by using Sigma Diagnostic Kit Cat. No. 336-10(Sigma Chemical Co., U.S.A.).

In test [1] the test system is ACAT. Nature of the test: ACAT activity in liver microsomes of fed rats. It is filed as in vivo, rat. The note with it: liver microsomes of rats fed 1% cholesterol plus 0.02% naringenin or 0.036% NG5006, six weeks. The method, then:
(§1) To determine the effect of feeding NG5006 to rats on the activities of ACAT and HMG-CoA reductase, microsomes were separated from liver tissues to be used as an enzyme source.
(§2) 1 g each of the livers taken from each group of rats of Example 12 was homogenized in 5 ml of homogenization medium(0. 1 M KH2PO4, pH 7.4, 0.1 mM EDTA and 10 mM β-mercaptoethanol). The homogenate was centrifuged at 3,000×g for 10 min. at 4° C. and the supernatant thus obtained was centrifuged at 15,000×g for 15 min. at 4° C. to obtain a supernatant. The supernatant was put into an ultracentrifuge tube(Beckman) and centrifuged at 100,000×g for 1 hour at 4° C. to obtain microsomal pellets, which were then suspended in 3 ml of the homogenization medium and centrifuged at 100,000×g for 1 hour at 4° C. The pellets thus obtained were suspended in 1 ml of the homogenization medium. The protein concentration of the resulting suspension was determined by Lowry's method and then adjusted to 4 to 8 mg/ml. The resulting suspension was stored in a deep freezer(Biofreezer, Forma Scientific Inc.).
6.67 μl of 1 mg/ml cholesterol solution in acetone was mixed with 6 μl of 10% Triton WR-1339(Sigma Co.) in acetone and then, acetone was removed from the mixture by evaporation under a nitrogen flow. Distilled water was added to the resulting mixture to adjust the concentration of cholesterol to […].
Added to 10 μl of the resulting aqueous cholesterol solution were 10 μl of 1 M KH2PO4(pH 7.4), 5 μl of 0.6 mM bovine serum albumin(BSA), 10 μl of microsome solution obtained in (Step 1) and 55 μl of distilled water(total 90 μl). The mixture was pre-incubated in a water bath at 37° C. for 30 min. […]
200 μl of the resulting supernatant was put in a scintillation bottle and 4 ml of scintillation fluid(Lumac Co.) was added thereto. The mixture was assayed for radioactivity with 1450 Microbeta liquid scintillation counter(Wallac Co., Finland). ACAT activity was calculated as picomoles of cholesteryl oleate synthesized per min. per mg protein(pmoles/min/mg protein).

The target of a further test is T1, HMG-CoA reductase (Rattus norvegicus, UniProt P51639).
T1 construct: microsomes were separated from liver tissues to be used as an enzyme source; from tissue; host or cells: liver microsomes of fed rats
T1 sequence (P51639 1-887): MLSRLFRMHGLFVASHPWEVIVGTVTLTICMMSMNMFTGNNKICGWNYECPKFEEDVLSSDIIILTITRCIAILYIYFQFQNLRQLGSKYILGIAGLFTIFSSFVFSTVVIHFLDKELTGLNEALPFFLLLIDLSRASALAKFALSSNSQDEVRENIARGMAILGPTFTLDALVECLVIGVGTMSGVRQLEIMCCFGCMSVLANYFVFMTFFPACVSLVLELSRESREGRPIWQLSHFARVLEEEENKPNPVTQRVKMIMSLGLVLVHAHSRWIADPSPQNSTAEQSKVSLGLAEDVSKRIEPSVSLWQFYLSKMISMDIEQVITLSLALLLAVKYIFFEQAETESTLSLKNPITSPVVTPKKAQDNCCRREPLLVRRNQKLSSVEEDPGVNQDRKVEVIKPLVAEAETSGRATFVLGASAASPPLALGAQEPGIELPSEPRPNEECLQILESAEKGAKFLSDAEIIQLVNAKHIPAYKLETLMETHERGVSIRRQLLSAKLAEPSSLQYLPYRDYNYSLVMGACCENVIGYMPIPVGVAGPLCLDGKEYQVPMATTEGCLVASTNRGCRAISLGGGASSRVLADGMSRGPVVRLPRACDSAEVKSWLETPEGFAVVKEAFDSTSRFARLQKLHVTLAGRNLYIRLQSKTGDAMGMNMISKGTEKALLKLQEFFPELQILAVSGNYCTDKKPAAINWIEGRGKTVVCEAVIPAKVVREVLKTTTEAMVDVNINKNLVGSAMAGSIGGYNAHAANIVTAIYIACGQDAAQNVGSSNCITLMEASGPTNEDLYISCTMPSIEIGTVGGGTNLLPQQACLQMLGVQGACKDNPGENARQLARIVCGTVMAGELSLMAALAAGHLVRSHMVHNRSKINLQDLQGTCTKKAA
Nature of the test: HMG-CoA reductase activity in liver microsomes of fed rats. It is filed as in vivo. To be noted: liver microsomes of rats fed 1% cholesterol plus 0.02% naringenin or 0.036% NG5006, six weeks. On the procedure:
as §1, §2
The activity of HMG-CoA reductase was determined by employing [^14C]HMG-CoA, in accordance with the method of Shapiro et al.(Biochemica et Biophysica Acta, 370, 369-377(1974)) as follows.
The enzyme in the supernatant containing the microsome obtained in (Step 1) was activated at 37° C. for 30 min. Added to a reaction tube were 20 μl of HMG-CoA reductase assay buffer(0.25M KH2PO4(pH 7.0), 8.75 mM EDTA, 25 mM DTT, 0.45 M KCl and 0.25 mg/ml BSA), 5 μl of 50 mM NADPH, 5 μl of [^14C]HMG-CoA(0.05μ Ci/tube, final conc. 120μM), and 10 μl of activated microsomal enzyme(0.03-0.04 mg), and the mixture was incubated at 37° C. for 30 min. […] A region having a Rf value ranging from 0.65 to 0.75 was removed by scraping with a disposable cover slips and assayed for radioactivity with 1450 Microbeta liquid scintillation counter(Wallac Co., Finland). Enzyme activities were calculated as picomoles mevalonic acid synthesized per min. per mg protein(pmoles/min/mg protein).

The test system of test [2] is New Zealand White rabbits. Nature of the test: Abnormal fat-containing liver cells (fatty liver) in cholesterol-fed rabbits. Format: in vivo, rabbit. On the procedure: (§3) 22 three-month-old New Zealand White rabbits(Yeonam Horticulture and Animal Husbandry College, Korea) each weighing about 2.0 to 2.3 kg were bred under a condition of temperature 20±2° C., relative humidity 55±10%, and photoperiod 12L/12D. The rabbits were divided two groups of 6 rabbits and a group of 10 rabbits, and the rats of three groups were fed with three different diets, i.e., RC4 diet(Oriental Yeast Co., Japan) containing 1% cholesterol(Control group); 1% cholesterol plus 1 mg/kg Lovastatin® (Merck, U.S.A.)(Comparative group); and 1% cholesterol plus 0.1% NG5006, respectively. RC4 diet comprises 7.6% moisture, 22.8% crude protein, 2.8% crude fat, 8.8% crude ash, 14.4% crude cellulose and 43.6% soluble nitrogen-free substances. The rabbits were bred for 8 weeks while being allowed free access to the diets and water.
In order to evaluate the effects of feeding a high cholesterol diet with NG5006 on liver tissues, the liver specimens taken from the sacrificed rabbit in Step 2 of Example 14 were treated in accordance with the procedure disclosed in Fogt F. and Nanji A., Toxicology and Applied Pharmacology, 136, 87-93, 1996; and Keegan A., et al., Journal of Hepatology, 23, 591-600, 1995, and observed under a microscope to be classified into four grades, i.e., 1+(0-25%), 2+(26-50%), 3+(51-75), 4+(76-100%) based on the proportion of abnormal fat-containing cells around the central vein in the liver acinus. The results were tested by student t-test by using Microsoft excel(version 7.0) program.

Test [3] concerns New Zealand White rabbits. Nature of the test: Fatty streak in the main artery of cholesterol-fed rabbits. Format: in vivo, rabbit. The method, then: as §3
The rabbits bred in Step 1 were sacrificed and their chest were incised. The main artery was cut out therefrom in a length of about 5 cm downward from the site 1 cm above the aortic valve and the fat surrounding the main artery was removed. The main artery was incised in the middle along the longitudinal axis and fixed in 10% neutral buffered formalin for 24 hours, and then, pinned to a dish. The moist artery was photographed and, then, staining of fatty streak was carried out in accordance with the method of Esper, E., et al. (J. Lab. Clin. Med., 121, 103-110(1993)) as follows.
A part of the incised main artery was washed three times by 2 min. with anhydrous propylene glycol and stained for 30 min. with a saturated solution of Oil Red O(ORO, Sigma Co.) dissolved in propylene glycol. Thereafter, the artery was washed twice by 3 min. with 85% propylene glycol to remove remaining staining solution and, then washed with physical saline. The artery was photographed and the photograph was traced. The area of stained legion(fatty streak legion) was determined with an image analyzer(LEICA, Q-600, Germany) and its proportion(%) to the total arterial area was calculated. The result is shown in Table V. The results were tested by student t-test by using Microsoft excel(version 7.0) program.

Test [4] relates to ACAT. Nature of the test: ACAT activity in fed rabbits. Format: in vivo, rabbit. To be noted: rabbits fed 1% cholesterol plus 1 mg/kg Lovastatin or 0.1% NG5006, 8 weeks. On the procedure: as §3
The effect of feeding NG5006 to rabbits on the activities of ACAT was determined using the rabbits bred in Step 1 of Example 14 in accordance with procedure disclosed in step 1 of Example 13.

Setting [5] is: plasma, rats on 1% cholesterol diet plus 0.02% naringenin or 0.036% NG5006, six weeks.
Where [6] appears, read: rats, 1% cholesterol diet, six weeks.
Setting [7] is: 1% cholesterol plus 1 mg/kg Lovastatin or 0.1% NG5006.

On to `O=C1C[C@@H](c2ccc(O)cc2)Oc2cc(O)cc(O)c21` [Naringenin, naringenin, reference compound], for which, in the test with Sprague-Dawley rats (setting [5]), the “HDL-C (HDL-cholesterol)” value worked out at 35.8 ± 1.5 mg/dL, the HDL-C/Total-C was 18.8 ± 0.9%, the “TG (triglyceride)” value is 143.7 ± 9.4 mg/dL and the “Total-C (total cholesterol)” value was 190.6 ± 7.6 mg/dL. Also, in the test with Sprague-Dawley rats (rats on 1% cholesterol diet plus 0.02% naringenin or 0.036% NG5006, six weeks), the “AI: Atherosclerosis Index (AI = (Total-C − HDL-C)/HDL-C)” value is given as 4.3 ± 0.3. Moreover, in the test with Sprague-Dawley rats (setting [6]), the “total plasma cholesterol level lower than in the Control group” value is given as 16% and the “triglyceride level lower than in the control group” value was 6%. The ACAT activity in the test on ACAT [1] turned out to be 153.3 ± 6.9 pmole/min/mg protein. At HMG-CoA reductase, the HMG-CoA reductase activity came to 87.7 ± 5.9 pmole/min/mg protein.
As to `CC[C@H](C)C(=O)O[C@H]1C[C@@H](C)C=C2C=C[C@H](C)[C@H](CC[C@@H]3C[C@@H](O)CC(=O)O3)[C@H]21` [Lovastatin ®, Lovastatin, reference compound], in test [2] (setting [7]), the “microscopic features of the livers (FIGS. 2B, 2C)” value was “many cells containing excessive fat were observed around the central vein”. Moreover, the “Proportion of abnormal fat-containing liver cells (grade)” value in test [2] (grades 1+(0-25%), 2+(26-50%), 3+(51-75), 4+(76-100%), 1% cholesterol plus 1 mg/kg Lovastatin or 0.1% NG5006, 8 weeks) is reported as 3.3 ± 1.1. Also, in test [3] (setting [7]), the “layer on the arterial endothelium (FIGS. 1B, 1C)” value is “no or very thin layers of macrophage-lipid complex”. Further, the “formation of fatty streak compared to the control group, in words” value in test [3] (1% cholesterol plus 1 mg/kg Lovastatin or 0.1% NG5006, 8 weeks) is “significantly inhibit the formation of fatty streak”. Moreover, the “Fatty Streak lesion (proportion of total arterial area)” value in test [3] (1% cholesterol plus 1 mg/kg Lovastatin or 0.1% NG5006, 8 weeks, Oil Red O staining) was 18.0 ± 9.5%. In the test on ACAT [4], the ACAT activity turned out to be 246.1 ± 52.5 pmole/min/mg protein. Besides, in the test with ACAT [4] (versus control group), the “% Inhibition on ACAT Activity” value was found to be 4.2%.
